Results on ten compounds are retold here after patent publication US8426408B2, “Pyrimidine inhibitors of kinases” (AbbVie Inc., priority 2009, dated 2013).

By Ki is commonly meant the equilibrium dissociation constant of an inhibitor or competing ligand from its target. The term IC50 denotes the concentration that inhibits the measured activity by half.

Where only a bound is given, the exact number is not on record here.

Assay [1] has as its target T1, Aurora B (Homo sapiens, UniProt Q96GD4).
T1 construct: Active Aurora B enzyme (recombinant residues 1-344)
Kind of assay: Aurora B enzyme inhibition (time-resolved fluorescence, histone H3 peptide). In kind it is biochemical. The settings on record: 1 mM ATP. An outline of the steps:
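Recombinant Aurora B (residues 1-344) with GST-INCENP phosphorylated biotinylated histone H3 (1-21) peptide at 1 mM ATP in HEPES pH 7.4 with MgCl2, orthovanadate and Triton X-100 for 1 h. After EDTA stop, the phosphopeptide was detected by TR-FRET (Eu-cryptate anti-phospho-H3 / SA-APC, 665/615 nm ratio). IC50 from an exponential fit.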

Assay [2] has as its target T2, KDR (Homo sapiens, UniProt P35968). Kind of assay: KDR cellular assay (KDR receptor phosphorylation ELISA). In kind it is cell-based. On the set-up: expressed in transfected cells; host or cells: 3T3 (embryonic mouse) cells. The note with it: KDR transfected 3T3 (embryonic mouse) cells, VEGF stimulated; read-out: IC50 inhibition of KDR phosphorylation. How it is done:
The ability of compounds to inhibit KDR receptor phosphorylation in cells was measured by ELISA following the protocol outlined below.
KDR transfected 3T3 (embryonic mouse) cells added to 96-well tissue culture plates at 20,000 cells/well.
Plates were covered and placed in a 37° C. humidified incubator with 5% CO2 overnight, to allow cells to adhere.
Coating solution was prepared: 500 l/vial PBS was added to 2 vials of anti-KDR antibody, then 1 ml solubilized anti-KDR antibody into 29.0 ml bicarbonate buffer. Coating solution was added to all wells at 150 µl/well (final amount anti-KDR=1 µg/well) and placed at 4° C. overnight.
Blocking solution (2.1 g dry milk+42 ml PBS=5% milk in PBS) was placed on a stir plate for 30 min.
Assay plates were washed twice with PBST, and 200 µl/well blocking solution was added to all wells. Assay plates were covered with plate sealers and placed in a 37° C. microplate chamber until just before cell lysate transfer.
Compound stocks were thawed or prepared in DMSO as 5 mM stocks.
Dilution medium (DM, 1% DMSO in DMEM) and compounds were diluted by half-log increments for concentration response analysis.
Conditioned media was dumped from the tissue culture plates, and plates were blotted dry.
Standard solution in DM, compound dilutions in DM, or DM (for high control, negative control, and reference wells) were added to the tissue culture plates, 25 µl/well. Each pair of tissue culture plates was prepared with the same compounds, solutions, and layout; and will be combined later; Tissue culture plates were covered and placed in the 37° C. microplate chamber for 20 min.
VEGF solution was prepared: 110 l VEGF stock+10.89 ml DM=100 ng/ml VEGF
VEGF solution or DM (for reference wells) was added to the tissue culture plates, 25 μl/well.
Tissue culture plates were covered and placed in the 37° C. microplate chamber for 10 min.
RIPA buffer was prepared (240 l NaVO3 stock+240 l PIC stock+24 l NaF stock+23.496 ml RIPA base) and added to the tissue culture plates, 50 µl/well.
Tissue culture plates were covered and placed on a Labline plate shaker for 10 min (speed about 5).
Assay plates were washed twice with PBST.
Cell lysates from matching wells of each pair of tissue culture plates were combined to =200 µl/well, and were pipetted up and down to mix. Cell lysates were transferred to the assay plates using the same layouts, 170 µl/well.
Assay plates were covered with plate sealers and placed on a Labline plate shaker for 2 hr (speed about 5).
Assay plates were washed 5 times with PBST.
Biotin antibody solution was prepared (16 l biotin antibody stock+32 ml PBST=2000× dilution) and added to the assay plates, 150 µl/well.
Assay plates were covered with plate sealers and placed on a Labline plate shaker for 90 min
Streptavidin-HRP solution was prepared (16 l streptavidin-HRP stock+32 ml PBST=2000× dilution) and added to the assay plates, 150 µl/well.
Assay plates were covered with plate sealers and placed on a Labline plate shaker for 60 min
Substrate was added to the assay plates, 100 µl/well.
As assay plates developed, the plates were each monitored on a Molecular Devices Spectramax set to 650 nm, until the signal in the high control wells was around 0.6 OD and the signal in the negative control wells was around 0.1-0.15 OD.
Stop solution was added to the assay plates, 100 µl/well.
The plates were read on a Molecular Devices Spectramax set to 450 nm.
Data was calculated by Assay Explorer, using same-plate high control wells as 0% and reference standard wells as 100% inhibition of KDR phosphorylation. IC50 values were calculated by non-linear regression analysis of the concentration response data.
In general terms: In an ELISA, binding on a coated surface is turned into a signal by an enzyme label.
Target sequence in this assay (P35968 20-1356): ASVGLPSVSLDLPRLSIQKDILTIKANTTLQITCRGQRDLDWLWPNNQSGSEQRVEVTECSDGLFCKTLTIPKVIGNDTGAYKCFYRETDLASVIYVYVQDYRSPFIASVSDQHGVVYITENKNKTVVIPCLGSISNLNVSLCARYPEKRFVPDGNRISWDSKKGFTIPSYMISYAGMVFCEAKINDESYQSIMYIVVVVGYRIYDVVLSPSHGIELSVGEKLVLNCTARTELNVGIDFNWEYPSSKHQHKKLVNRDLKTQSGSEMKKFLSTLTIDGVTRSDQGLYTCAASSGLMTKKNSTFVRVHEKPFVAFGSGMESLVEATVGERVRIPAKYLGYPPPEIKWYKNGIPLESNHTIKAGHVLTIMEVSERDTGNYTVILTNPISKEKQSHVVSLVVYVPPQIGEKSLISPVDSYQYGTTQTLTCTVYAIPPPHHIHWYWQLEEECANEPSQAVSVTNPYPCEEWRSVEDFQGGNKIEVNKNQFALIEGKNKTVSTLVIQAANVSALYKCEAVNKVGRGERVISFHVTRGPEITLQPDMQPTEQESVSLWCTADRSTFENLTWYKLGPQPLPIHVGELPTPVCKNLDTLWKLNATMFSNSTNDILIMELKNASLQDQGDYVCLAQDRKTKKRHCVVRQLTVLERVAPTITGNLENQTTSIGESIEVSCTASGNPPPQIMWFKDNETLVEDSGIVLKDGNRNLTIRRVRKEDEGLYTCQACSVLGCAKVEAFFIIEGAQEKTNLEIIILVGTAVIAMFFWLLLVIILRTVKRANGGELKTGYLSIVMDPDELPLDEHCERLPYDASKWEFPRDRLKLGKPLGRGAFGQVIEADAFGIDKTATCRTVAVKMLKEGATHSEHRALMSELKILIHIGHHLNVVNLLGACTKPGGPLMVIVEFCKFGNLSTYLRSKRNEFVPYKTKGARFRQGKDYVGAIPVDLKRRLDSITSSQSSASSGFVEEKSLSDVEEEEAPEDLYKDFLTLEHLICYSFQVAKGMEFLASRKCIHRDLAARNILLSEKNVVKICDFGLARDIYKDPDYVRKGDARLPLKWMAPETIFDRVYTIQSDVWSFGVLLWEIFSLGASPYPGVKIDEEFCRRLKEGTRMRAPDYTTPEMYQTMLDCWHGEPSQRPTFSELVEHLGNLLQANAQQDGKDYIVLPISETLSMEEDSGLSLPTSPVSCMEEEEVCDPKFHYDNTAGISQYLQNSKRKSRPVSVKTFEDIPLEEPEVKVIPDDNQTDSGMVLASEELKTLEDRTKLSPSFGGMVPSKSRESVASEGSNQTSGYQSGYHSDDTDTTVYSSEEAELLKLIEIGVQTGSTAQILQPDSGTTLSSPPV

Assay [3] addresses T3, Aurora A (Homo sapiens, UniProt O14965).
T3 sequence (O14965 1-403): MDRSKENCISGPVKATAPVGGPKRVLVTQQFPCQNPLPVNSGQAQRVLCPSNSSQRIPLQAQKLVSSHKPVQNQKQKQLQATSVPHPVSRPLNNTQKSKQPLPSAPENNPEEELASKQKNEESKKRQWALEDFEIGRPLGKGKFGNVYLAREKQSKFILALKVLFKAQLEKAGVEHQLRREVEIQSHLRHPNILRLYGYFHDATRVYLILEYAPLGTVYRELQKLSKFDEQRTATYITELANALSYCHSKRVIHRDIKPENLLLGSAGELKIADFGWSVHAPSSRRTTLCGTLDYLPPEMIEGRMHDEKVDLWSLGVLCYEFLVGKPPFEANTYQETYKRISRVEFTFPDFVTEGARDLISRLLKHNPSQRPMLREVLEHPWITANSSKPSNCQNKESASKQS
Kind of assay: Aurora A enzyme inhibition (time-resolved fluorescence, STK substrate-2). The format is biochemical. The note with it: 1 mM ATP. In a few lines: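 Active enzyme incubated 1 h with biotinylated STK substrate-2, 1 mM ATP and inhibitor in Hepes pH 7.4 with MgCl2, orthovanadate and Triton X-100. EDTA stop; phosphopeptide detected by Eu-cryptate anti-phospho-STK/SA-XL665 TR-FRET (665/615 nm ratio); IC50 by exponential fit.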

Assay [4] deals with T2, KDR. Briefly: KDR HTRF in vitro kinase assay. The format is biochemical. Further details: purified enzyme (His6-KDR 789-1354, MW 63 kD); His6 (N). The settings on record: 1 mM ATP; read-out: KDR enzyme inhibition data (Ki). An outline of the steps: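 His6-KDR 789-1354 (7 ng/well) with 0.5 μM biotinylated peptide substrate and 1 mM ATP in HEPES pH 7.1, MgCl2/MnCl2, 60 min at room temperature. EDTA-quenched, detected by streptavidin-XL-665 plus Eu-kryptate anti-phosphotyrosine HTRF after 3 h; IC50 from 620/665 nm ratio.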
Target sequence in this assay (P35968 789-1354): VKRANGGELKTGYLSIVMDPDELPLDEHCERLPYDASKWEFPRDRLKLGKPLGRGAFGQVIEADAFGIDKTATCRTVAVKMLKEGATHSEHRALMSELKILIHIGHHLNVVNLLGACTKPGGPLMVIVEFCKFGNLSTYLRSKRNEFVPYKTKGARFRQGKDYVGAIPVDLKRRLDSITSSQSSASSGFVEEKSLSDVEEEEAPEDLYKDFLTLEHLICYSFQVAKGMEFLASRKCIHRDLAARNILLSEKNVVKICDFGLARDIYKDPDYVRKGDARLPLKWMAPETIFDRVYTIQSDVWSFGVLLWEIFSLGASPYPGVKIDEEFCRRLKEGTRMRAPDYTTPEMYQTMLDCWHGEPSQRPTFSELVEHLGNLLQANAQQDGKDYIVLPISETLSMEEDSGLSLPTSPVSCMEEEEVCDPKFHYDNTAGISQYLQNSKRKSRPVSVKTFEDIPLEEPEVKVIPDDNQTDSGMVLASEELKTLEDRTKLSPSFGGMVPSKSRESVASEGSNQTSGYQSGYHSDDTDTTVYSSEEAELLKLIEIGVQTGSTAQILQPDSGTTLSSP
For orientation: Time-resolved FRET reads energy transfer from a long-lived donor to a nearby acceptor.

T1 sequence (Q96GD4 whole entry, the tested form may be a part): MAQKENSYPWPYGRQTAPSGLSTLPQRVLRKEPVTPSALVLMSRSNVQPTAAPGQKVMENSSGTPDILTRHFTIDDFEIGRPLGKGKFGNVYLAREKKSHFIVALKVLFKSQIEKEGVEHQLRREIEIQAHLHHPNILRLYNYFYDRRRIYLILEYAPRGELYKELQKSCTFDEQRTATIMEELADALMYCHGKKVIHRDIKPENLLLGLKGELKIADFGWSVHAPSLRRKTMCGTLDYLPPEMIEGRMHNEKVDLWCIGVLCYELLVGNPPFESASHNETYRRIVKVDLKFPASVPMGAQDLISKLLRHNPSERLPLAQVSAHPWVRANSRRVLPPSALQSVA
T1 sequence (Q9NQS7 826-918 partner limits assumed): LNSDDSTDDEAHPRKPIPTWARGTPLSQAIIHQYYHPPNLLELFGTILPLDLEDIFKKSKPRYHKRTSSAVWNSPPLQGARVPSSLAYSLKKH

Take `Cn1cc(Nc2ncc(Cl)c(Nc3ccccc3CO)n2)cn1` [Example 145, [2-({5-chloro-2-[(1-methyl-1H-pyrazol-4-yl)amino]pyrimidin-4-yl}amino)phenyl]methanol]: the Ki in assay [1], in assay [3] and in assay [4] was below 100 nM in each case. In addition, in assay [2], the IC50 was in the range of 100 to 1000 nM.

Consider `CC1(C)[C@H]2C[C@H](C(N)=O)[C@H](Nc3nc(Nc4cnn(Cc5ccccc5)c4)ncc3Cl)[C@@H]1C2` [Example 187, (1R,2R,3S,5R)-2-({2-[(1-benzyl-1H-pyrazol-4-yl)amino]-5-chloropyrimidin-4-yl}amino)-6,6-dimethylbicyclo[3.1.1]heptane-3-carboxamide], for which the Ki in assay [1], in assay [3] and in assay [4] was below 100 nM in each case. The IC50 in assay [2] fell in the range of 100 to 1000 nM.

Consider “(1S,2S,3R,4R)-3-[(5-bromo-2-{[1-(3-fluoro-4-methoxybenzyl)-1H-pyrazol-4-yl]amino}pyrimidin-4-yl)amino]bicyclo[2.2.1]hept-5-ene-2-carboxamide [Example 193]”, for which the Ki in assay [1], in assay [3] and in assay [4] was below 100 nM in each case. Moreover, the IC50 in assay [2] is below 100 nM.

Consider `Cn1cc(Nc2ncc(Cl)c(N[C@@H]3[C@H](C(N)=O)[C@H]4C=C[C@@H]3C4)n2)cn1.Cn1cc(Nc2ncc(Cl)c(N[C@H]3[C@@H](C(N)=O)[C@@H]4C=C[C@H]3C4)n2)cn1` (mixture of isomers) [Example 27, (1S,2S,3R,4R)-3-({5-chloro-2-[(1-methyl-1H-pyrazol-4-yl)amino]pyrimidin-4-yl}amino)bicyclo[2.2.1]hept-5-ene-2-carboxamide and (1R,2R,3S,4S)-3-({5-chloro-2-[(1-methyl-1H-pyrazol-4-yl)amino]pyrimidin-4-yl}amino)bicyclo[2.2.1]hept-5-ene-2-carboxamide], for which the Ki in assay [1], in assay [3] and in assay [4] was below 100 nM each time. In assay [2], the IC50 is below 100 nM.

On to `CN1CCN(CCn2cc(Nc3ncc(Cl)c(N[C@H]4[C@@H](C(N)=O)C[C@H]5C[C@@H]4C5(C)C)n3)cn2)CC1` [Example 190, (1R,2R,3S,5R)-2-{[5-chloro-2-({1-[2-(4-methylpiperazin-1-yl)ethyl]-1H-pyrazol-4-yl}amino)pyrimidin-4-yl]amino}-6,6-dimethylbicyclo[3.1.1]heptane-3-carboxamide], for which the Ki in assay [1] was below 100 nM; in assay [3] it was 100 to 1000 nM; in assay [4], 100 to 1000 nM. In assay [2], the IC50 was 100 to 1000 nM.

For the compound `Cc1c(Nc2ncc(Br)c(N[C@H]3[C@@H](C(N)=O)C[C@H]4C[C@@H]3C4(C)C)n2)cnn1C` [Example 185, (1R,2R,3S,5R)-2-({5-bromo-2-[(1,5-dimethyl-1H-pyrazol-4-yl)amino]pyrimidin-4-yl}amino)-6,6-dimethylbicyclo[3.1.1]heptane-3-carboxamide], the Ki in assay [1], in assay [3] and in assay [4] was below 100 nM throughout. In assay [2], the IC50 is 100 to 1000 nM.

Regarding `CCn1cc(Nc2ncc(C(N)=O)c(NC3C4C=CC(C4)C3C(N)=O)n2)cn1` (mixture of isomers) [Example 87, 4-{[(1S,2S,3R,4R)-3-carbamoylbicyclo[2.2.1]hept-5-ene-2-yl]amino}-2-[(1-ethyl-1H-pyrazol-4-yl)amino]pyrimidine-5-carboxamide and 4-{[(1R,2R,3S,4S)-3-carbamoylbicyclo[2.2.1]hept-5-ene-2-yl]amino}-2-[(1-ethyl-1H-pyrazol-4-yl)amino]pyrimidine-5-carboxamide], the Ki in assay [1], in assay [3] and in assay [4] was below 100 nM each time. The IC50 in assay [2] lay in the range of 100 to 1000 nM.

As to `CCn1cc(Nc2nc(C)c(Cl)c(N[C@@H]3[C@H](C(N)=O)[C@H]4C=C[C@@H]3C4)n2)cn1.CCn1cc(Nc2nc(C)c(Cl)c(N[C@H]3[C@@H](C(N)=O)[C@@H]4C=C[C@H]3C4)n2)cn1` (mixture of isomers) [Example 126, (1S,2S,3R,4R)-3-({5-chloro-2-[(1-ethyl-1H-pyrazol-4-yl)amino]-6-methylpyrimidin-4-yl}amino)bicyclo[2.2.1]hept-5-ene-2-carboxamide and (1R,2R,3S,4S)-3-({5-chloro-2-[(1-ethyl-1H-pyrazol-4-yl)amino]-6-methylpyrimidin-4-yl}amino)bicyclo[2.2.1]hept-5-ene-2-carboxamide], the Ki is below 100 nM in assay [1], below 100 nM in assay [3] and 100 to 1000 nM in assay [4]. In addition, the IC50 in assay [2] was 100 to 1000 nM.

As for `CCn1cc(Nc2ncc(Cl)c(N[C@H]3[C@@H](C(N)=O)C[C@H]4C[C@@H]3C4(C)C)n2)cn1` [Example 166, (1R,2R,3S,5R)-2-({5-chloro-2-[(1-ethyl-1H-pyrazol-4-yl)amino]pyrimidin-4-yl}amino)-6,6-dimethylbicyclo[3.1.1]heptane-3-carboxamide], the Ki in assay [1], in assay [3] and in assay [4] was below 100 nM each time. Moreover, in assay [2], the IC50 fell in the range of 100 to 1000 nM.

As to `NC(=O)[C@@H]1[C@H](Nc2nc(Nc3cnn(CCO)c3)ncc2C(F)(F)F)[C@H]2C=C[C@@H]1C2.NC(=O)[C@H]1[C@@H](Nc2nc(Nc3cnn(CCO)c3)ncc2C(F)(F)F)[C@@H]2C=C[C@H]1C2` (mixture of isomers) [Example 29, (1S,2S,3R,4R)-3-{[2-{[1-(2-hydroxyethyl)-1H-pyrazol-4-yl]amino}-5-(trifluoromethyl)pyrimidin-4-yl]amino}bicyclo[2.2.1]hept-5-ene-2-carboxamide and (1R,2R,3S,4S)-3-{[2-{[1-(2-hydroxyethyl)-1H-pyrazol-4-yl]amino}-5-(trifluoromethyl)pyrimidin-4-yl]amino}bicyclo[2.2.1]hept-5-ene-2-carboxamide], the figures for the Ki in assay [1], in assay [3] and in assay [4] were 100 to 1000 nM, below 100 nM and below 100 nM, respectively. Besides, in assay [2], the IC50 lay within 100 to 1000 nM.
